Assay results published in PubChem BioAssay (NCI).
Several values for one entry are separate records, joined by “and”; a condition that tells them apart may be missing. Equal entries are not always repeated.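 1) Cells in 96-well plates. 2) Compound, 48 h, 5 concentrations. 3) Linear interpolation between surrounding doses. 4) Unreached endpoint = highest concentration. The concentration for 50% growth inhibition is given as GI50. TGI denotes the concentration required for complete inhibition of growth.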

Test system: MDA-MB-468 breast
Experiment: DTP human tumour cell line panel, 48 h

Compound	GI50	TGI
CN1CCN(Cc2ccc(NC(=O)c3cncc(C#Cc4cnc5ccc(NCCO)nn45)c3)cc2C(F)(F)F)CC1	0.227 µM	1.02 µM
Fc1cc2[nH]ncc2c2c3c(c(-c4cn[nH]c4C(F)(F)F)nc12)C1CCC3C1 (centres undefined)	1.1 µM	3.98 µM
C=C1C(=O)O[C@H]2[C@H]1CC/C(COC(=O)c1cc3cc(Cl)ccc3[nH]1)=C\CC[C@@]1(C)O[C@@H]21	1.89 µM	4.07 µM
COc1cc(/C=C2\C(=O)Nc3ccc(N(C)C)cc32)cc(OC)c1OC	3.25 µM	27.2 µM
COc1ccc(C2=NN(C=O)C(c3cccc(Nc4ccnc5cc(Cl)ccc45)c3)C2)cc1 (centres undefined)	0.417 µM	3.48 µM
Cn1c2c(c3ccc(Cl)c(Cl)c31)C(C#N)C1(CCNCC1)NC2=O (centres undefined)	1.63 µM	4.29 µM
Cc1c(C(=O)NCCN2CCOCC2)cn2ncnc(Oc3ccc(NC(=O)Nc4ccc(Cl)c(C(F)(F)F)c4)cc3)c12	1.52 µM	3.45 µM
Cc1ccc(-c2csc(NC(=O)CN3CCN(c4cc5c(cc4F)c(=O)c(C(=O)O)cn5C4CC4)CC3)n2)cc1	0.697 µM	6.53 µM
CCOc1cc(/C=N\Nc2nnc(C)n2N)c(C)cc1N(CCCl)CCCl	0.321 µM	2.23 µM
NC(=O)c1cc2c3ccccc3ccn2c1-c1ccccc1	0.273 µM	15.2 µM
O=C(O)c1ccc2c(c1)CCCC(c1ccc(Cl)cc1Cl)=C2c1ccc(O[C@H]2CCN(CCCF)C2)cc1	12 µM	26.9 µM
COc1ccc(Cn2cc3c(c2)-c2oncc2CC3)cc1	3.2 µM	> 100 µM
CCn1c2ccc(O)cc2c2c(C)c3c[n+](C)ccc3c(C)c21	0.284 µM	2.6 µM
COc1cc(C(=O)Nc2cc3c(cc2Oc2cc(C)cc(C)c2)C(=O)N(C)[C@@H](CC(=O)N(C)O)C(=O)N3)c(Br)c(OC)c1OC	< 0.00333 µM	< 0.00333 µM
COc1ccc(-c2ccc(-c3ccc(C(=N)N)cn3)o2)cc1	2.04 µM	5.69 µM
COc1ccc2cc(-c3c(-c4ccncc4)nc(-c4ccc(S(C)(=O)=O)cc4C)n3C)ccc2c1	3.02 µM	14.5 µM
COC(=O)C1CCc2sc3ncnc(Nc4cn[nH]c4C(=O)Nc4ccc(CN5CCN(C)CC5)cc4)c3c21 (centres undefined)	1.42 µM	> 100 µM
CCn1c(-c2nonc2N)nc2c(C#CC(C)(C)O)nc(OCCNC)cc21	3.32 µM	10.4 µM
C/C=C1\NC(=O)[C@H]2CSSCCC=C[C@H](CC(=O)N[C@H](C(C)C)C(=O)N2)OC(=O)[C@H](C(C)C)NC1=O	< 0.01 µM	< 0.0122 µM

Compound	GI50	TGI
Cc1cc2c(cc1C)N(C(=O)CCl)CCN2C(=O)CCl	0.199 µM	0.457 µM
COc1cc(-c2n/c(=C\c3c(O)[nH]c4ccc(Cl)cc34)cc3c2=Nc2ccccc2-3)ccc1F	1.81 µM	3.81 µM
COc1ccc(N2C(=O)[C@H]3CC(C)c4c([nH]c5ccccc45)[C@H]3C2=O)cc1 (some centres undefined)	3.63 µM	54.1 µM
COc1ccccc1/C=C/C(=O)c1ccccc1	7.23 µM	28 µM
COc1cc2ncnc(Nc3ccc(F)c(Cl)c3)c2cc1NC(=O)/C=C/CN1CCCCC1	< 0.01 µM	0.00538 µM
CC[PH+](CC)CC.O=COC1OC([S-])C(OC=O)C(OC=O)C1OC=O.[Au+] (centres undefined)	0.659 µM	2.31 µM
Cc1cc(Cl)ccc1Nc1nc(C(F)(F)F)ccc1C(=O)N/N=C/c1ccc([N+](=O)[O-])cc1	1.16 µM	5.16 µM
CNCCn1c(=O)c2cc(OC)c(OC)cc2c2ccc3cc4c(cc3c21)OCO4	0.0743 µM	0.244 µM
Cc1sc2nc3c4ccccc4c(NCCCN(C)C)nn3c(=O)c2c1C	1.27 µM	2.8 µM
CCCCCCCCCCCCCCCCCC1=NCCN1C(=O)OCCO	1.68 µM	3.21 µM
Cc1nc2sccn2c1-c1csc(Nc2cccc(Cl)c2C)n1	1.05 µM	11 µM
CCOc1cccc(/C=N/NC(=O)C(=O)Nc2cccc(C(F)(F)F)c2)c1O	2.05 µM	15.8 µM
COc1cc2c(=O)n(CCN)c3c4cc5c(cc4ccc3c2cc1OC)OCO5	0.219 µM	0.881 µM
CN1C(=O)N(C)C2C1NN=c1s/c(=C\c3ccc(F)cc3)c(=O)n12 (centres undefined)	0.366 µM	4.07 µM
CCCOc1ccc2nc(NC(=O)OC)[nH]c2c1	0.274 µM	> 100 µM
COc1ccc2[nH]c(O)c(C(=Nc3ccc(N(C)C(=O)CN4CCN(C)CC4)cc3)c3ccccc3)c2c1	2.6 µM	6.13 µM
C=CC(=O)Nc1cc2c(Nc3ccc(F)c(Cl)c3)ncnc2cc1OCCCN1CCOCC1	< 0.01 µM and 0.00238 µM	0.194 µM and 0.101 µM
CC1(C)CC[C@]23CC[C@]4(C)[C@H](CC[C@@H]5[C@@]6(C)CC[C@H](N)C(C)(C)[C@@H]6CC[C@]54C)[C@H]2[C@H]1OC3	1.7 µM	3.25 µM
